This note sets out measurements from article PMC12226413, “Downregulation of O‐GlcNAcylation enhances etoposide‐induced p53‐mediated apoptosis in HepG2 human liver cancer cells” (FEBS Open Bio, 2025).

The target of assay [1] is T1, Recombinant human OGT protein (O-GlcNAc transferase) (Homo sapiens, UniProt O15294).
T1 construct: recombinant human OGT from R&D Systems
T1 sequence (O15294 2-1046): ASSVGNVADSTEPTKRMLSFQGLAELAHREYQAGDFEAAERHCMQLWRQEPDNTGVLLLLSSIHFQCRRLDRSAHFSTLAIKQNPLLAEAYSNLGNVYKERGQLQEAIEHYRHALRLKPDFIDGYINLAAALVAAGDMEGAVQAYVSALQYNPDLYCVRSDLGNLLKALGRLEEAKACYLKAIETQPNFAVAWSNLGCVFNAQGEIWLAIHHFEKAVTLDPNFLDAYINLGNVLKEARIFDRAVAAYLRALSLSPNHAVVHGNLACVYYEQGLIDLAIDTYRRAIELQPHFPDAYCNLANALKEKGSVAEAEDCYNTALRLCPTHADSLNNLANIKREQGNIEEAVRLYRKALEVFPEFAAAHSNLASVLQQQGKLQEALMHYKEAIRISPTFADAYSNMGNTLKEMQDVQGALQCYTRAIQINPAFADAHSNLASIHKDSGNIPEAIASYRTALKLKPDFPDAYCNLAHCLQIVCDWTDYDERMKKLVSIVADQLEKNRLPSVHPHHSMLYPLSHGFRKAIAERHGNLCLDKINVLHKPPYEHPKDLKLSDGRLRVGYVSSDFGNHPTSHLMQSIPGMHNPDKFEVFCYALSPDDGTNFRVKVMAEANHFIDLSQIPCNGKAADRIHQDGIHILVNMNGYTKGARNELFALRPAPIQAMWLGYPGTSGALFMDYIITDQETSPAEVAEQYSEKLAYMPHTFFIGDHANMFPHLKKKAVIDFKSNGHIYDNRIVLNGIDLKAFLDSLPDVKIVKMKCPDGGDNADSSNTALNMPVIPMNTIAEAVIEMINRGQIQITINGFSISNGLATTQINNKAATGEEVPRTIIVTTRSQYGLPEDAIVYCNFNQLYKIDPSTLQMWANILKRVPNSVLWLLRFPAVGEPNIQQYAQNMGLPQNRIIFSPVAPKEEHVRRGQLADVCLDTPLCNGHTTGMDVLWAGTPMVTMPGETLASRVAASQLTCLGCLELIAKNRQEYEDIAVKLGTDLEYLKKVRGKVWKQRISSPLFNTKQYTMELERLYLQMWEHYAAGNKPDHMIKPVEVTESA
The assay is described as follows: UDP-Glo glycosyltransferase assay (luminescence). The assay is classed as biochemical.

The target in assay [2] is T1, Recombinant human OGT protein (O-GlcNAc transferase). The assay is described as follows: UDP-Glo glycosyltransferase assay (luminescence). The assay is classed as biochemical. The following applies: UDP-GlcNAc and peptide KKKYPGGSTPVSSANMM as substrates; 25 mM Tris pH 7.5, 12.5 mM MgCl2, 0.06 mg/mL BSA, 1 mM DTT; unreliable.

Take `COc1ccccc1[C@@H](NS(=O)(=O)c1ccc2[nH]c(=O)ccc2c1)C(=O)N(Cc1ccco1)Cc1cccs1` [OSMI-1]: in assay [1], the IC50 (usually the concentration needed to halve the response being measured) was 4.47 µM.
Consider `COc1cc([C@@H]2c3cc4c(cc3[C@@H](O[C@@H]3O[C@@H]5CO[C@@H](C)O[C@H]5[C@H](O)[C@H]3O)[C@H]3COC(=O)[C@H]23)OCO4)cc(OC)c1O` [Etoposide], for which the “% inhibition at 400 μM” value in assay [2] is on record as ~ 47.3%.
